Laboratory results as given in ChEMBL document CHEMBL5252532, “Oxindole: A chemical prism carrying plethora of therapeutic benefits” (Eur J Med Chem, 2016).
Converted amounts (≈) assume the structure as drawn.

Tests used:
MCF7 = assay: Growth inhibition of human MCF7 cells; format: functional
[1] = target: Aldo-keto reductase family 1 member B1 (Homo sapiens, UniProt P15121); assay: Inhibition of AR (unknown origin) assessed as glycation activity
[2] = test system: Mycobacterium tuberculosis; assay: Antitubercular activity against Mycobacterium tuberculosis H37Rv strain assessed as bacterial growth inhibition; format: functional
[3] = target: Cyclin-dependent kinase 1 (Homo sapiens, UniProt P06493); assay: Inhibition of human CDK1 using Biotinaminohexyl-Ala-Arg-Arg-Pro-Met-Ser-Pro-Lys-LysLys-Ala-CONH2 peptide as substrate incubated for 20 to 30 mins by scintillation counter analysis
Cyclin-dependent kinase 1, sequence (P06493 whole entry): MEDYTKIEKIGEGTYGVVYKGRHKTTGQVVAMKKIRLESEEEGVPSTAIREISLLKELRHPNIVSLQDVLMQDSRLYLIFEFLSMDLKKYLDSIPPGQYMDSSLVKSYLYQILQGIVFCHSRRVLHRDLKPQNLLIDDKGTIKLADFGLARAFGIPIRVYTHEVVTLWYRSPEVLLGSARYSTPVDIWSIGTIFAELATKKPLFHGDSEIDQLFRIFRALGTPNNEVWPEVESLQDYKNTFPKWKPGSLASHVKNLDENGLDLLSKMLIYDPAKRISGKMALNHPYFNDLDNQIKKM

[4] = target: Cyclin-dependent kinase 2 (Homo sapiens, UniProt P24941); assay: Inhibition of human CDK2 […]-Pro-Met-Ser-Pro-Lys-LysLys-Ala-CONH2 peptide as substrate incubated for 30 to 60 mins by scintillation counter analysis
MGC-803 = assay: Anticancer activity against human MGC-803 cells assessed as cell growth inhibition incubated for 24 hrs by MTT assay; format: functional, cell-based; settings: MGC-803, 24 h
T-24 = assay: Anticancer activity against human T24 cells assessed as cell growth inhibition incubated for 24 hrs by MTT assay; format: functional, cell-based; settings: T-24, 24 h
RKO = assay: Anticancer activity against human RKO cells assessed as cell growth inhibition by MTT assay; format: functional, cell-based
MDA-MB-435 = assay: Anticancer activity against human MDA-MB-435 cells assessed as cell growth inhibition by MTT assay; format: functional, cell-based
Streptococcus pyogenes = assay: Antibacterial activity against Streptococcus pyogenes assessed as bacterial growth inhibition; format: functional
Staphylococcus aureus = assay: Antibacterial activity against Staphylococcus aureus assessed as bacterial growth inhibition; format: functional
Pseudomonas aeruginosa = assay: Antibacterial activity against Pseudomonas aeruginosa assessed as bacterial growth inhibition; format: functional
Escherichia coli = assay: Antibacterial activity against Escherichia coli assessed as bacterial growth inhibition; format: functional
[5] = target: High affinity nerve growth factor receptor (Homo sapiens, UniProt P04629); assay: Inhibition of TrkA (unknown origin)
High affinity nerve growth factor receptor, sequence (P04629 whole entry): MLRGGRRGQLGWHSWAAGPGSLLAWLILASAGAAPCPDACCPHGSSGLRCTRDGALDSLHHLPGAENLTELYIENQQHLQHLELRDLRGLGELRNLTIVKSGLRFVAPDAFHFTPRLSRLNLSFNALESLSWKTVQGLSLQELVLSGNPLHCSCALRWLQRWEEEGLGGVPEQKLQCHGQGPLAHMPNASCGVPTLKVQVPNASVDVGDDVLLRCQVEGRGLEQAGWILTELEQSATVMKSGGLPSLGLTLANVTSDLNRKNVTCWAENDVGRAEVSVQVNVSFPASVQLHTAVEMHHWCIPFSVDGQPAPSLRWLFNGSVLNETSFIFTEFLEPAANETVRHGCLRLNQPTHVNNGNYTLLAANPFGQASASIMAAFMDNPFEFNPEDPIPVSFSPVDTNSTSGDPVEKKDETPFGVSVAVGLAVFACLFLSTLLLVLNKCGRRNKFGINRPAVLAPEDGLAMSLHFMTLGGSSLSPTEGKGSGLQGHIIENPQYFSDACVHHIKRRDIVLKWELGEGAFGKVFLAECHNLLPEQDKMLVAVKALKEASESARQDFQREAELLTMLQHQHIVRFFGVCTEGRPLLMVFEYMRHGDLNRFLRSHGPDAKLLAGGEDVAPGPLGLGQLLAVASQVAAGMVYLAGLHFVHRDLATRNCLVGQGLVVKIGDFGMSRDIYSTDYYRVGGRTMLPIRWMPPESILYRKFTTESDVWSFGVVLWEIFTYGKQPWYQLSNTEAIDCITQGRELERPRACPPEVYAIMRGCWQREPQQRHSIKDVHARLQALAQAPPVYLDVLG

Homo sapiens = species: Homo sapiens; assay: Inhibition of ERK (unknown origin) at 100 uM by western blot assay relative to control
A549 = assay: Anticancer activity against human A549 cells assessed as cell growth inhibition; format: functional, cell-based
GAMG = assay: Anticancer activity against human GAMG cells assessed as cell growth inhibition; format: functional, cell-based
SK-N-BE(2) = assay: Anticancer activity against human SKNBE2 cells assessed as cell growth inhibition; format: functional, cell-based
[6] = target: Vascular endothelial growth factor receptor 1 (Homo sapiens, UniProt P17948); assay: Inhibition of VEGFR1 (unknown origin) in presence of ATP
Vascular endothelial growth factor receptor 1, sequence (P17948 whole entry): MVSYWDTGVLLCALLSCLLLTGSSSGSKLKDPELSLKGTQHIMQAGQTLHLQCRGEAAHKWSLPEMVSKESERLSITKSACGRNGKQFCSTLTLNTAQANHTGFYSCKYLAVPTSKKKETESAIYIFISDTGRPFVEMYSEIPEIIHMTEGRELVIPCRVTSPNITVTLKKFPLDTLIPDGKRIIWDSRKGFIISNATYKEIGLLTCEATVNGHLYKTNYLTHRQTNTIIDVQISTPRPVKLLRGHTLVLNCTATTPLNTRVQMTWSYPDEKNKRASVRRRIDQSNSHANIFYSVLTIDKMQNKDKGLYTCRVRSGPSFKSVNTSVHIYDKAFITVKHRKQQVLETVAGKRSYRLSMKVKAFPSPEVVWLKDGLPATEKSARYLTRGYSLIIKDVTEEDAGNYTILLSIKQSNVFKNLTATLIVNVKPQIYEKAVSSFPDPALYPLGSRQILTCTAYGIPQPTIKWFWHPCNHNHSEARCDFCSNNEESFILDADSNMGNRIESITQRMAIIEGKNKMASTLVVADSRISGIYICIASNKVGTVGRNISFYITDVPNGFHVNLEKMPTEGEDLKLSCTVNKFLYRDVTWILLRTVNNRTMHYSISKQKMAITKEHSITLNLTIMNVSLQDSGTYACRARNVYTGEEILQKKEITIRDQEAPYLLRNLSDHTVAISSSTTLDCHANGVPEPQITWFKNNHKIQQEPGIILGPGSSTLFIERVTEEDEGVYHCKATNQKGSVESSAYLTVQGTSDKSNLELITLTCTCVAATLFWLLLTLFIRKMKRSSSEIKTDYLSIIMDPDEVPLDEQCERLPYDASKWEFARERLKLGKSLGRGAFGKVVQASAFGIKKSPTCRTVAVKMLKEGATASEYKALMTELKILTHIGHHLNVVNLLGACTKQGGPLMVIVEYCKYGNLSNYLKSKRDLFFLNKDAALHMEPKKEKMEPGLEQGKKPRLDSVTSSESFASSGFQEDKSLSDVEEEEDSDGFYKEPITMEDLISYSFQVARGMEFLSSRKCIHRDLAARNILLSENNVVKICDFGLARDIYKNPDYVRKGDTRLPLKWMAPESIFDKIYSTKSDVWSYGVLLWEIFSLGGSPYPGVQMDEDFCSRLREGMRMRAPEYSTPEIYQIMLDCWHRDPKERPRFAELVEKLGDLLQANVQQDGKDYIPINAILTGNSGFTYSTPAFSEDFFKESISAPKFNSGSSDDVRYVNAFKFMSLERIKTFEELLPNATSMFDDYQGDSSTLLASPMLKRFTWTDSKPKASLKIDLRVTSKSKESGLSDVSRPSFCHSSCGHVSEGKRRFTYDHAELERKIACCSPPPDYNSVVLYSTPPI

CN1C(=O)O[C@]2(C[C@H]1c1ccccc1)C(=O)Nc1ccccc12
GI50 (MCF7): 2.6 µM

C[C@@H]1O[C@@H](OC[C@H]2O[C@@H](Oc3c(-c4ccc(O)c(O)c4)oc4cc(O)cc(O)c4c3=O)[C@H](O)[C@@H](O)[C@@H]2O)[C@H](O)[C@H](O)[C@H]1O [RUTIN]
IC50 [1]: 295 µM

Cc1ccc(CN2C(=O)/C(=N/NC(=O)c3ccccc3)c3cc(C)ccc32)cc1
MIC [2]: 25 µg/mL (≈ 65.2 µM)

O=C1Nc2ccc3ncsc3c2/C1=C/Nc1ccc(S(=O)(=O)NCCOCCO)cc1
IC50 [3]: 0.00054 µM | IC50 [4]: 0.012 µM

CC(=O)O[C@H]1CC[C@@]2(C)C(=CC[C@@H]3[C@@H]2CC[C@]2(C)C4=C(C#N)C(=N)OC5(C(=O)N(Cc6c(F)cccc6F)c6ccccc65)C4C[C@@H]32)C1 (stereo partly specified)
IC50 (MGC-803): 8.45 µM | IC50 (T-24): 4.43 µM

COc1cc[nH]c1/C=C1\C(=O)Nc2ccc([N+](=O)[O-])c(N3CC[C@@H](N)C3)c21
IC50 (RKO): < 10 µM | IC50 (MDA-MB-435): < 10 µM

Cc1ccc(O)c(/C=C2\C(=O)Nc3ccccc32)c1
IC50 [1]: 195 µM

CC(=O)O[C@H]1CC[C@@]2(C)C(=CC[C@@H]3[C@@H]2CC[C@]2(C)C4=C(C#N)C(=N)OC5(C(=O)N(Cc6ccc(C)cc6)c6ccccc65)C4C[C@@H]32)C1 (stereo partly specified)
IC50 (MGC-803): 8.45 µM | IC50 (T-24): 4.43 µM

Cc1ccc(S(=O)(=O)N2CCN(c3ccc(/C=C4/C(=O)Nc5ccccc54)cc3)CC2)cc1
MIC (Streptococcus pyogenes): 25 µg/mL (≈ 54.4 µM) | MIC (Staphylococcus aureus; Staphylococcus aureus, read-out: MIC): 25 µg/mL (≈ 54.4 µM) | MIC (Pseudomonas aeruginosa): 25 µg/mL (≈ 54.4 µM) | MIC (Escherichia coli; Escherichia coli, read-out: MIC): 25 µg/mL (≈ 54.4 µM)

CC1(C)CC(=O)C2=C(C1)NC(=S)NC21C(=O)Nc2ccc(Br)cc21 (stereo unspecified)
MIC (Staphylococcus aureus): 500 µg | MIC (Escherichia coli): 500 µg

O=C1Nc2ccccc2/C1=C/Nc1ccc(-n2nccn2)cc1
IC50 [5]: 0.008 µM

O=C1Nc2ccccc2/C1=C/c1cccc(Cl)c1
IC50 [1]: 150 µM

O=C1Cc2cc(O)ccc2N1
inhibition (Homo sapiens): 35%

O=C1Nc2ccccc2C1=O
inhibition (Homo sapiens): 35%

O=C1Nc2ncccc2C12CCN(Cc1ccccc1OC(F)(F)F)CC2
IC50 (A549): 0.05 µM

COC(=O)C1=CO[C@@H](C)[C@H]2CN3CC[C@]4(C(=O)Nc5ccccc54)[C@@H]3C[C@H]12
IC50 (GAMG): 12.3 µM | IC50 (SK-N-BE(2)): 20 µM

Cc1cc(CCC(=O)O)c(/C=C2\C(=O)Nc3ccccc32)[nH]1
IC50 [6]: 0.096 µM
